Source: patent publication EP1016409B1, “FREEZE DRIED COMPOSITION COMPRISING GLYCOSPHINGOLIPIDS” (KIRIN BEER KABUSHIKI KAISHA, priority 1997, dated 1998)

Assays:
Type in all cases: physicochemical
[1] = Selection of a solvent for the active component: solubility judged by naked eye
Experimental: First, […] of the active component (KRN7000) was weighed and stirred in 100 ml of a variety of solvents (Table 3) in a heated bath to 80°C for 20 minutes in order to form a solution having a concentration of 10 µg/ml. With respect to the solvents which were judged to have successfully dissolved 10 µg/ml of the active component, dissolution was further tried in the same manner as above in order to form a solution having a concentration of 100 µg/ml. With respect to the solvents which were judged to have successfully dissolved 100 µg/ml of the active component, dissolution was further tried in the same manner as above in order to form a solution having a concentration of 200 µg/ml. After cooling with running water, the solubility of the component was judged.
The solubility of the component was judged by the test described below. First, transparent colorless glass vials having a volume of 5 ml were charged with about 1.5 ml portion of each sample and sealed up. The vial was cleaned outside and placed beneath the white light source in a darkroom for observation with naked eye at the position of a luminous intensity of about 5,000 lux. When the sample was clear with no precipitates, it was judged that the active component was dissolved.

[2] = Excipient appropriate to lyophilization 1: re-solubility immediately after lyophilization; conditions: KRN7000 200 µg/ml, Polysorbate 20 0.5%
Experimental: A variety of monosaccharides and disaccharides were used for examination of excipients of the lyophilized preparation. In this context, the active component (KRN7000) was set at the concentration of 200 µg/ml, and Polysorbate 20 which is used only in a limited amount from the viewpoint of safety was set at the concentration of 0.5% in the following examination.
First, Polysorbate 20 was dissolved in distilled water in a concentration of 0.5%, and the saccharides were dissolved in such concentrations as listed in Table 6. Next, 20 mg of the active component (KRN7000) was weighed and stirred in 100 ml of the solvents in a heated bath to 80°C for 20 minutes in order to form a solution. After cooling with running water, the mixture was filtered through a 0.22 µm filter, and transparent colorless glass vials having a volume of 5 ml were charged with a 1 ml portion of each of a variety of solutions thus obtained and subjected to lyophilization. Lyophilization was carried out under the condition of preliminary freezing at -40°C for 2 hours and drying at -20°C for 24 hours, 10°C for 12 hours, and finally at 25°C for 5 hours to give the lyophilized product. The degree of vacuum was set at 0.1 Torr or less during drying step.
After the lyophilization step, the lyophilized composition was reconstituted in 1 ml of distilled water for injection, left standing for 30 minutes, and solubility was judged when the foams generated on reconstitution disappeared.
The solubility was judged by cleaning the outside of the vial and placing it beneath the white light source in a darkroom for observation with naked eye at the position of a luminous intensity of about 5,000 lux. When the sample was clear with no precipitates, it was judged that the active component was dissolved.

[3] = Cooling condition after dissolution with heating 1: turbidity; conditions: Polysorbate 20 0.5%, histidine 0.75%, sucrose 5.6%, cooling 73°C → 30°C; for Turbidity After filtration / Turbidity Before filtration: 800 mg KRN7000 in 4 liters; for Turbidity After filtration: 0.22 µm filter; for Turbidity After filtration / Turbidity Lyophilized composition: kaolin 1 µg/ml = turbidity 1.00; for Turbidity Before filtration: kaolin 1 µg/ml = turbidity 1.00, 660 nm; for Turbidity Lyophilized composition: reconstituted after 3 hours at room temperature (25°C)
Experimental: First, Polysorbate 20 was dissolved in distilled water in a concentration of 0.5%, histidine in a concentration of 0.75%, and sucrose in a concentration of 5.6%. Next, 800 mg of the active component (KRN7000) was weighed and stirred in 4 liters of the solvent under heating at 73°C for 30 minutes in order to form a solution. After dissolution, the mixture was divided into about 500 ml portions, cooled with stirring from 73°C to 30°C (6 minutes), from 73°C to 30°C (23 minutes), and from 73°C to 30°C (120 minutes). After cooling, the mixtures were filtered through a 0.22 µm filter, and transparent colorless glass vials having a volume of 5 ml were charged with a 1 ml portion of each of a variety of solutions thus obtained and subjected to lyophilization. Lyophilization was carried out under the condition of preliminary freezing at -50°C for 5 hours and drying at -15°C for 48 hours, 10°C for 12 hours, and finally at 25°C for 7 hours to give the lyophilized product. The degree of vacuum was set at 0.1 Torr or less during drying step.
The turbidity of the solutions prepared respective cooling conditions before or after the filtration step, and the lyophilized composition thus obtained which were reconstituted after leaving standing at room temperature (25°C) for 3 hours from the lyophilization step, were measured. In this connection, the lyophilized composition was reconstituted in 1 ml of distilled water for injection, left standing for 30 minutes, and turbidity was measured when the foams generated on reconstitution disappeared.
The turbidity was measured by the following method: various dilutions including 50-fold dilution (kaolin 2 µg/ml, turbidity 2.00), 100-fold dilution (kaolin 1 µg/ml, turbidity 1.00), and 200-fold dilution (kaolin 0.5 µg/ml, turbidity 0.50) were prepared by diluting the turbidity standard (kaolin, […]) with distilled water. A calibration curve was made by measuring the absorbance at a wave length of 660 nm with a control of distilled water and the various dilutions in a spectrophotometer (HITACHI U-3210). Next, the absorbance of the solutions was measured under the same condition as above to calculate the turbidity of the solutions.

Question: Which results are given for CCCCCCCCCCCCCCCCCCCCCCCCCC(=O)N[C@@H](CO[C@H]1O[C@H](CO)[C@H](O)[C@H](O)[C@H]1O)[C@H](O)[C@H](O)CCCCCCCCCCCCCC [KRN7000, (2S,3S,4R)-1-(α-D-galactopyranosyloxy)-2-hexacosanoylamino-3,4-octadecanediol]?
Answer: Judgment of solubility (by naked eye) ([1]; solvent 0.5% Cremophor, KRN7000 10 µg/ml): + (+ not dissolved (or deposited)); Judgment of solubility (by naked eye) ([1]; solvent 0.5% HCO 50, KRN7000 10 µg/ml): + (+ not dissolved (or deposited)); Judgment of solubility (by naked eye) ([1]; solvent 0.5% HCO 60, KRN7000 10 µg/ml): + (+ not dissolved (or deposited)); Judgment of solubility (by naked eye) ([1]; solvent 0.5% Polyoxamer 188, KRN7000 10 µg/ml): + (+ not dissolved (or deposited)); Judgment of solubility (by naked eye) ([1]; solvent 0.5% Polysorbate 20, KRN7000 10 µg/ml): - (- dissolved); Judgment of solubility (by naked eye) ([1]; solvent 0.5% Polysorbate 20, KRN7000 100 µg/ml): - (- dissolved); Judgment of solubility (by naked eye) ([1]; solvent 0.5% Polysorbate 20, KRN7000 200 µg/ml): - (- dissolved); Judgment of solubility (by naked eye) ([1]; solvent 0.5% Polysorbate 80, KRN7000 10 µg/ml): - (- dissolved); Judgment of solubility (by naked eye) ([1]; solvent 0.5% Polysorbate 80, KRN7000 100 µg/ml): + (+ not dissolved (or deposited)); Judgment of solubility (by naked eye) ([1]; solvent 1N HCl, KRN7000 10 µg/ml): + (+ not dissolved (or deposited)); Judgment of solubility (by naked eye) ([1]; solvent 1N NaOH, KRN7000 10 µg/ml): + (+ not dissolved (or deposited)); Judgment of solubility (by naked eye) ([1]; solvent Distilled water, KRN7000 10 µg/ml): + (+ not dissolved (or deposited)); Judgment of solubility (by naked eye) ([1]; solvent Ethanol, KRN7000 10 µg/ml): - (- dissolved); Judgment of solubility (by naked eye) ([1]; solvent Ethanol, KRN7000 100 µg/ml): - (- dissolved); Judgment of solubility (by naked eye) ([1]; solvent Ethanol, KRN7000 200 µg/ml): - (- dissolved); Judgment of solubility (by naked eye) ([1]; solvent Glycerol, KRN7000 10 µg/ml): - (- dissolved); Judgment of solubility (by naked eye) ([1]; solvent Glycerol, KRN7000 100 µg/ml): + (+ not dissolved (or deposited)); Judgment of solubility (by naked eye) ([1]; solvent Macrogol 400, KRN7000 10 µg/ml): - (- dissolved); Judgment of solubility (by naked eye) ([1]; solvent Macrogol 400, KRN7000 100 µg/ml): + (+ not dissolved (or deposited)); Judgment of solubility (by naked eye) ([1]; solvent Propylene glycol, KRN7000 10 µg/ml): - (- dissolved); Judgment of solubility (by naked eye) ([1]; solvent Propylene glycol, KRN7000 100 µg/ml): + (+ not dissolved (or deposited)); Re-solubility immediately after lyophilization ([2]; Fructose 5%): + (+ not dissolved (or deposited)); Re-solubility immediately after lyophilization ([2]; Fructose 10%): + (+ not dissolved (or deposited)); Re-solubility immediately after lyophilization ([2]; Glucose 5%): - (- dissolved); Re-solubility immediately after lyophilization ([2]; Glucose 10%): + (+ not dissolved (or deposited)); Re-solubility immediately after lyophilization ([2]; Lactose 5%): + (+ not dissolved (or deposited)); Re-solubility immediately after lyophilization ([2]; Lactose 10%): + (+ not dissolved (or deposited)); Re-solubility immediately after lyophilization ([2]; Maltose 1.5%): + (+ not dissolved (or deposited)); Re-solubility immediately after lyophilization ([2]; Maltose 3%): + (+ not dissolved (or deposited)); Re-solubility immediately after lyophilization ([2]; Mannitol 5%): + (+ not dissolved (or deposited)); Re-solubility immediately after lyophilization ([2]; Mannitol 10%): - (- dissolved); Re-solubility immediately after lyophilization ([2]; Sorbitol 5%): + (+ not dissolved (or deposited)); Re-solubility immediately after lyophilization ([2]; Sorbitol 10%): + (+ not dissolved (or deposited)); Re-solubility immediately after lyophilization ([2]; Sucrose 4.8%): - (- dissolved); Re-solubility immediately after lyophilization ([2]; Sucrose 9.6%): - (- dissolved); Re-solubility immediately after lyophilization ([2]; Xylitol 4.3%): + (+ not dissolved (or deposited)); Re-solubility immediately after lyophilization ([2]; Xylitol 8.6%): + (+ not dissolved (or deposited)); Turbidity After filtration ([3]; 6 minutes): 0.13; Turbidity Before filtration ([3]; 6 minutes): 0.23; Turbidity After filtration ([3]; 23 minutes): 0.15; Turbidity Before filtration ([3]; 23 minutes): 0.58; Turbidity After filtration ([3]; 120 minutes): 0.16; Turbidity Before filtration ([3]; 120 minutes): 0.64; Turbidity Lyophilized composition ([3]; 6 minutes): 0.24; Turbidity Lyophilized composition ([3]; 23 minutes): 0.36; Turbidity Lyophilized composition ([3]; 120 minutes): 0.36
